The values that follow come from patent US20240384350A1, “METHODS OF TREATING CANCER WITH KINASE INHIBITORS” (BOARD OF REGENTS, THE UNIVERSITY OF TEXAS SYSTEM, priority 2021, published 2024).

For the assay, the system named is EGFR mutations spanning exons 18-21. Briefly: Ba/F3 panel of 76 cell lines expressing EGFR mutations, selectivity over WT EGFR by structure-function group. In kind it is cell-based. The note with it: Ex20ins mutations, FIG. 5A. An excerpt: To determine the effect of EGFR mutations on TKI sensitivity, a panel of 76 cell lines expressing EGFR mutations spanning exons 18-21 was generated and screened against 18 known EGFR inhibitors representing 1st (non-covalent), 2nd (covalent), and 3rd (covalent, T790M targeting) generation TKIs, and compounds under investigation for Ex20ins. […] For the various mutations, structure-function based groups were more predictive of drug sensitivity than exon based groups as determined by spearmen correlations (p<0.0001, FIG. 1F, FIG. 2). […]
After 48-72 hours of transduction, 2 μg/ml puromycin (Invitrogen) was added to Ba/F3 cell lines in complete RPMI. […] Plates were incubated for a minimum of 10 minutes, and bioluminescence was determined using a FLUOstar OPTIMA plate reader (BMG LABTECH). […] Statistical differences between groups were determined by ANOVA as described in the figure legends. […]

For the molecule `CN(C)C/C=C/C(=O)Nc1cc2c(Nc3ccc(Cl)c(Br)c3)ncnc2cn1` [Tarlox-TKI], the sensitivity in vitro result is reported as “sensitive”.
